Results taken from US20260083704A1, “LXR MODULATORS WITH BICYCLIC CORE MOIETY FOR TREATING DYSLIPIDEMIAS” (OrsoBio, Inc., priority 2022, published 2026).
Marks after values point to notes of the source that are not given here.

How the values were obtained:
DIO mice = assay: Two-step hyperinsulinemic-euglycemic clamp in DIO mice; type: in vivo; details: 5 mg/kg once daily oral
From the text: Data are shown as mean±SD. N=5-11 animals per group. *p≤0.05, **p≤0.01, ***p≤0.001, ****p≤0.0001 vs. vehicle, unless otherwise indicated; ^#p≤0.05 pioglitazone vs. vehicle. Repeated measures Two-way ANOVA with Dunnett's multiple comparisons test (FIG. 7A, FIG. 7D), Two-way ANOVA with Dunnett's multiple comparisons test (FIG. 7B, FIG. 7C). EDL=extensor digitorum longus, GIR=glucose infusion rate, HGP=hepatic glucose production, iWAT=inguinal white adipose tissue.
The effects of chronic dosing of Compound 21/3 and Compound pre-6/3 were evaluated in DIO mice and HFD-fed ZDF rats, respectively. Briefly, C57BL/6 mice were fed a HFD for 16 weeks prior to treatment with Compound pre-6/3 (5 mg/kg) or pioglitazone (30 mg/kg; positive control) once daily by oral gavage. After four weeks of treatment, a two-step hyperinsulinemic-euglycemic clamp along with the infusion of radiotracers to monitor glucose disposal and hepatic glucose production was performed. […] These changes were associated with a reduction in hepatic glucose production in the Compound pre-6/3-treated mice, more evident during the 8 mU/kg/min insulin infusion (FIG. 7B).

healthy subjects = assay: Phase 1 study, MAD cohorts: safety and tolerability; type: in vivo, human; details: for Abdominal pain / Any TEAE / Back pain / Diarrhea / Grade ≥2 TEAE / Headache / Pruritis / Serious TEAE / TEAE leading to study drug discontuation / Treatment-related TEAE / subjects with mild (Grade 1), transient increase in serum ALT: MAD; for Abdominal pain / Any TEAE / Back pain / Diarrhea / Grade ≥2 TEAE / Headache / Pruritis / Serious TEAE / TEAE leading to study drug discontuation / Treatment-related TEAE: n = 8
Experimental: A double-blind, placebo-controlled, single- and multiple-ascending dose FIH Phase 1 study to evaluate the safety, tolerability, PK, and PD of Compound 21/3 in healthy adult subjects was performed. A total of up to 150 subjects were enrolled, including 100 subjects in Parts A and B, and up to 50 subjects in adaptive cohorts in Part C. Within each cohort, 10 subjects were randomized, including 8 subjects randomized to Compound 21/3 and 2 subjects to PTM (placebo-to-match). In single-dose cohorts in Parts A and in any Part C cohort evaluating a higher total daily dose than previously evaluated, safety and tolerability data collected through Day 2 from two sentinel subjects, one randomized to Compound 21/3 and one to PTM, were evaluated prior to dosing of the remaining subjects in each cohort.
An approximately even distribution of healthy male and non-pregnant, non-lactating female subjects 18 to 55 years of age, inclusive, were to be enrolled in the study. There were no significant medical conditions by history, physical examination, or laboratory evaluation. Subjects were not allowed to participate in more than one cohort of the study. Within each MAD cohort, attempts were made to enrich for >3 subjects with elevated TG and/or LDL-C. Following the completion of Screening and admission assessments, eligible subjects were to be enrolled on Day −1. Safety and tolerability assessments, including adverse event (AE) monitoring, laboratory tests, physical examinations, and ECG evaluations were performed throughout the study.
The severity of AEs was graded using the Common Terminology Criteria for Adverse Events version 5.0 (CTCAE v5.0).

N#Cc1cccc(C#N)c1-c1c(-c2cccc(-c3ccc(C(=O)O)cc3Cl)c2)n(S(=O)(=O)c2ccc(C(F)F)cc2)c2ccc(F)cc12 [pre-6/3]
glucose utilization by muscle versus vehicle (DIO mice; end of the clamp): significantly higher | glucose infusion rate versus vehicle (DIO mice; four weeks, insulin infusion 8 and 18 mU/kg/min): significantly higher | hepatic glucose production (DIO mice; four weeks, more evident at 8 mU/kg/min): reduction

N#Cc1cccc(C#N)c1-c1c(-c2cccc(-c3ccc(C(=O)NCC(=O)O)cc3Cl)c2)n(S(=O)(=O)c2ccc(C(F)F)cc2)c2ccc(F)cc12 [Compound 21/3]
Abdominal pain (healthy subjects; 0.5 mg, fed): 1 (13) | Any TEAE (healthy subjects; 0.5 mg, fed): 7 (88) | Back pain (healthy subjects; 0.5 mg, fed): 0 (0) | Diarrhea (healthy subjects; 0.5 mg, fed): 2 (25) | Grade ≥2 TEAE (healthy subjects; 0.5 mg, fed): 0 (0) | Headache (healthy subjects; 0.5 mg, fed): 1 (13) | Pruritis (healthy subjects; 0.5 mg, fed): 4 (50) | Serious TEAE (healthy subjects; 0.5 mg, fed): 0 (0) | TEAE leading to study drug discontuation (healthy subjects; 0.5 mg, fed): 0 (0) | Treatment-related TEAE (healthy subjects; 0.5 mg, fed): 0 (0) | Abdominal pain (healthy subjects; 2 mg, fed): 0 (0) | Any TEAE (healthy subjects; 2 mg, fed): 3 (38) | Back pain (healthy subjects; 2 mg, fed): 0 (0) | Diarrhea (healthy subjects; 2 mg, fed): 0 (0) | Headache (healthy subjects; 2 mg, fed): 0 (0) | Pruritis (healthy subjects; 2 mg, fed): 0 (0) | Serious TEAE (healthy subjects; 2 mg, fed): 0 (0) | TEAE leading to study drug discontuation (healthy subjects; 2 mg, fed): 0 (0) | Treatment-related TEAE (healthy subjects; 2 mg, fed): 0 (0) | Grade ≥2 TEAE (healthy subjects; 2 mg, fed, Grade 2 thrombophlebitis considered unrelated to study treatment): 1 (13)* | Abdominal pain (healthy subjects; 6 mg (fasted)): 1 (13) | Any TEAE (healthy subjects; 6 mg (fasted)): 1 (13) | Back pain (healthy subjects; 6 mg (fasted)): 0 (0) | Diarrhea (healthy subjects; 6 mg (fasted)): 0 (0) | Grade ≥2 TEAE (healthy subjects; 6 mg (fasted)): 0 (0) | Headache (healthy subjects; 6 mg (fasted)): 0 (0) | Pruritis (healthy subjects; 6 mg (fasted)): 0 (0) | Serious TEAE (healthy subjects; 6 mg (fasted)): 0 (0) | TEAE leading to study drug discontuation (healthy subjects; 6 mg (fasted)): 0 (0) | Treatment-related TEAE (healthy subjects; 6 mg (fasted)): 0 (0) | Abdominal pain (healthy subjects; 6 mg, fed): 1 (13) | Any TEAE (healthy subjects; 6 mg, fed): 5 (63) | Back pain (healthy subjects; 6 mg, fed): 2 (25) | Diarrhea (healthy subjects; 6 mg, fed): 1 (13) | Grade ≥2 TEAE (healthy subjects; 6 mg, fed): 0 (0) | Headache (healthy subjects; 6 mg, fed): 1 (13) | Pruritis (healthy subjects; 6 mg, fed): 0 (0) | Serious TEAE (healthy subjects; 6 mg, fed): 0 (0) | TEAE leading to study drug discontuation (healthy subjects; 6 mg, fed): 0 (0) | Treatment-related TEAE (healthy subjects; 6 mg, fed): 1 (13) | Abdominal pain (healthy subjects; 12 mg, fed): 1 (13) | Any TEAE (healthy subjects; 12 mg, fed): 3 (38) | Back pain (healthy subjects; 12 mg, fed): 0 (0) | Diarrhea (healthy subjects; 12 mg, fed): 2 (25) | Grade ≥2 TEAE (healthy subjects; 12 mg, fed): 0 (0) | Headache (healthy subjects; 12 mg, fed): 2 (25) | Pruritis (healthy subjects; 12 mg, fed): 0 (0) | Serious TEAE (healthy subjects; 12 mg, fed): 0 (0) | TEAE leading to study drug discontuation (healthy subjects; 12 mg, fed): 0 (0) | Treatment-related TEAE (healthy subjects; 12 mg, fed): 2 (25) | tolerability (healthy subjects; healthy subjects, 0.5, 2, 6, and 12 mg for 14 days): well tolerated | subjects with treatment-related TEAEs (all mild, gastrointestinal) (healthy subjects; healthy subjects, MAD cohorts): 3 subjects | proportion of subjects with adverse events (AEs) (healthy subjects; healthy subjects, MAD cohorts, range over dose groups): 13-88% | subjects with mild (Grade 1), transient increase in serum ALT (healthy subjects; healthy subjects, 6 mg group, fed): one | subjects with mild (Grade 1), transient increase in serum ALT (healthy subjects; healthy subjects, 12 mg group, fed): 4 subjects | safety and tolerability (healthy subjects; healthy subjects, single and multiple daily doses up to 20 mg/d for 14 days): safe and well tolerated
